According to patent US8980832B2, “Use of fumaric acid derivatives for treating cardiac insufficiency, and asthma” (Biogen Idec International GmbH, priority 2003, dated 2015):
Counter-ions that a name gives are not always drawn.

Experiments:
[1] = system: Bronchial smooth muscle cells; assay: PDGF-stimulated proliferation of bronchial smooth muscle cells, 3H-thymidine (Example C); type: cell-based; settings: 10 ng/ml PDGF; 10^-5 M DMF; 36 h treatment + 8 h 3H-thymidine
Procedure: Bronchial smooth muscle cells were grown in 96 well plates until they reached 60-70% confluency. The cells were then starved for 48 h in serum free, 0.3% albumine containing RPMI medium. […] As a control untreated cells (buffer only) were used. Cells were treated for 36 h, whereafter 4 μCi of ^3H-thymidine was added for further 8 hours. The cells were lysed, DNA-incorporated ^3H-thymidine bound to filter membranes, and the incorporated cpm measured in a liquid scintillation device.

[2] = system: BSM (bronchial smooth muscle) cells; assay: inhibition of the PDGF-induced incorporation of 3H-thymidine in BSM cells (Example B); type: cell-based; settings: 10^-5 M dimethyl fumarate; 0, 1, 5, 10 and 20 ng/ml PDGF; 24 h 3H-thymidine
Procedure: BSM (bronchial smooth muscle) cells were cultivated in RPMI, 0.3% albumin and 0.1% DMSO at 37° C. in the presence of 0, 1, 5, 10 and 20 ng/ml on PDGF with and without 10^−5 M dimethyl fumarate.
After a predetermined period of time, 5 μCi on ^3H-thymidine was added to the culture medium and incubation was continued for further 24 hours. The incorporation was finally stopped by means of centrifugation, removal of the supernatant, washing and lysis of the cells. The incorporation on ^3H-thymidine was measured by determining the radioactivity in the lysates in a liquid scintillation device in comparison to the control. The results are shown in FIG. 2 as percentage values as compared with the control (100%).

[3] = system: rat model of acute ischemia and reperfusion; assay: acute ischemia and reperfusion model of the rat, size of the infarction; type: in vivo; settings: 10 mg dimethyl fumarate in 0.02% DMSO iv at beginning of first occlusion; 45 min ischemia, 120 min reperfusion; vs control
Procedure: The effects of dimethyl fumarate were examined in the present experiment using the model of acute ischemia and reperfusion of the rat. For this purpose, healthy, male rats were divided into three groups with 17 animals each. In the tests, an ischemia was caused for 45 minutes through an occlusion of an artery with the heart being exposed and, subsequently, reperfusion was carried out for 120 minutes. Finally, a myocardial infarction was triggered by means of a reocclusion and the risk area was determined by means of dyeing with phthalocyanine blue. The administration of the test substance was carried out iv at the beginning of the first occlusion. The control group received 0.02% DMSO (0.5 ml/kg body weight), the DMF group received 10 mg dimethyl fumarate in 0.02% DMSO (0.5 ml/kg body weight). The animals were ischemically preconditioned in the second group (2 times 5 minutes each ischemia and reperfusion). The results are represented in FIG. 1.

[4] = system: Dahl-rats; assay: left ventricular enddiastolic diameter in Dahl rats on high salt diet, echocardiography; type: in vivo, rat; settings: 2x5 and 2x15 mg DMF/kg/d, 8 weeks of high salt diet
Procedure: Dahl-rats, which are salt sensitive, were administered varying dosages of DMF on a daily basis and put on a high salt diet. After 8 weeks of treatment the left ventricular enddiastolic diameters were measured for test and control groups by echocardiographic analysis. Groups measured were control (0 mg DMF; n=9); group 1 (2×5 mg DMF/kg/d; n=9) and group 2 (2×15 mg DMF/kg/d; n=11). […] Specifically, in the DMF groups the inner diameter of the left ventricle remained in the same range as at baseline (see FIG. 4). […] Importantly, dilatation of the left ventricle marks the transition from compensated hypertrophy to decompensated heart failure. Consequently, DMF delays the transition to heart failure, and thus prevents myocardial infarctions.

With `COC(=O)/C=C/C(=O)OC` [DMF, dimethyl fumarate] the “cell proliferation, percentage of control (100%)” value [1] was 116±4%, the “PDGF-induced 3H-thymidine incorporation” value [2] was “this increase is significantly reduced” and the “size of the infarction” value [3] was “limited the size of the infarction to a statistically significant degree”. For the same molecule, the “dilatation of the left ventricle (left ventricular enddiastolic diameter)” value [4] was “prevented the dilatation of the left ventricle after 8 weeks of high salt diet in dose dependent manner”.
